Assay results reported in PMC5750218, “Protein-inspired antibiotics active against vancomycin- and daptomycin-resistant bacteria” (Nature Communications, 2018).
≈ marks a conversion by molar mass, not a printed value. Where “and” joins values, the source holds several entries; their conditions need not be identical. Identical values can stand only once. Like-named read-outs stand apart in the source and are kept apart here.

What was measured:
Cytotoxicity MTT assay [1] = assay type: cell-based, human; conditions: human
In short: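 HepG2 and HEK293 cells, 1.5 × 10^4 per well in DMEM with 1% FBS, were allowed to attach for 24 h, then exposed 24 h at 37 °C to compounds at 100 µM to 0.046 µM in threefold steps. MTT (0.4 mg mL^−1) was added for 2 h, and formazan in DMSO was read at 570 nm. Viability is given as percent of control, corrected for a positive control.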

MRSA = MRSA in 50% human serum / 50% MHB
Experimental: The compounds, along with standard antibiotics were serially diluted twofold across the wells of 96-well non-binding surface (NBS) polystyrene plates (Corning 3641). […] Standards ranged from 64 to 0.03 µg mL^−1 and compounds from 8 to 0.003 µg mL^−1 with final assay volumes of 100 µL per well. Gram-positive bacteria were cultured in Mueller Hinton broth (MHB) (Bactolaboratories, Cat. no. 211443) at 37 °C overnight. A sample of each culture was then diluted 40-fold in fresh MHB and incubated at 37 °C for 2–3 h. […] All the plates were covered and incubated at 37 °C for 24 h. MICs were the lowest concentration showing no visible growth.
The compounds, along with standard antibiotics, tested in BMD-MIC assay as above, in the presence of a mixture of 50% human serum (Sigma-Aldrich) and 50% MHB.

[2] = test system: Methicillin-resistant S. aureus ATCC 43300; assay: microbe, parasite or virus in culture
In short: (§1)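 Reported values are MICs read as the lowest concentration showing no visible growth after 24 h at 37 °C. Compounds were tested by twofold broth microdilution in Mueller Hinton broth over 8 to 0.003 µg mL^−1.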

[3] = test system: Vancomycin-resistant (VanA) Enterococcus faecium ATCC 51559; assay: microbe, parasite or virus in culture
In short: as §1

[4] = test system: Multi-drug-resistant S. pneumoniae ATCC 700677; assay: microbe, parasite or virus in culture
In short: as §1

[5] = test system: Vancomycin-intermediate S. aureus NRS1; assay: microbe, parasite or virus in culture
In short: as §1

Cytotoxicity MTT assay [6] = assay type: cell-based, human; conditions: human; remark: listed apart in the source
in vitro = conditions: human, 50% human plasma (pooled, sodium heparin) in PBS, pH 7.4
[7] = Critical micelle concentration assay; assay type: physicochemical; conditions: 0.2 M NaCl, DPH
Experimental: CMCs were determined as previously described[46] with a higher throughput modification. Briefly, a cascade dilution of each antibiotic was performed in a low binding polypropylene V-bottom shaped 96-well plates in the presence of 0.2 M NaCl solution across 12 concentrations ranging from 1000 to 0.1 μM, except the control melittin (100 to 0.01 μM). An identical cascade dilution was performed for the neutral detergent Triton X-100 and the anionic detergent sodium dodecyl sulphate (SDS) starting from 0.1% down to 0.00001% (vol:vol for Triton X-100 and wt:vol for SDS). An aliquot of […] (DPH) in DMSO was added in each well to yield the final DPH concentration of 5 μM. The reaction mixtures were mixed for 30 s and transferred in horizontal triplicate (25 μL per well) into a black falcon 384-well plate. The 384-well plate was then sealed, wrapped up in aluminium foil and incubated for 30 min at room temperature. The fluorescence intensity was monitored in real time using a BMG Labtech PolarStar Omega multimode reader fitted with 360-10 and 430-10 excitation and emission filters respectively, at an excitation wavelength of 360 nm and an emission wavelength of 430 nm.

[8] = 37 °C, 20 µM
[9] = test system: Bacillus subtilis ATCC 6633; assay: microbe, parasite or virus in culture; assay type: cell-based; conditions: for Ac2Kaa concentration required to neutralise MIC activity / MIC: ATCC 6633, 48 h; for Molar excess of Ac2Kaa ligand required to antagonise antibacterial activity: [ligand]/[antibiotic], B. subtilis ATCC 6633, 24 h
Experimental: All compounds were dissolved in H2O. Bacillus subtilis ATCC® 6633™ NRS-231 was cultured in MHB at 37 °C for 48 h. A sample of each culture was then diluted 40-fold in fresh MHB and incubated at 37 °C for 18 h. Compounds were added to each row of 96-well NBS plates (NBS, Corning 3641), in duplicate. The tripeptide N,N΄-diacetyl-L-Lys-D-Ala-D-Ala was serially diluted twofold across the compound-containing wells from 6400 to 3 µg mL^−1. To this the resultant mid-log phase cultures were diluted to the final concentration of 5 × 10^5 CFU mL^−1, then added to wells of the compound-containing plates. All the plates were covered and incubated at 37 °C for 24 h.

Haemolysis assay = assay type: cell-based; conditions: human, whole blood
Experimental: Haemolytic activity was measured as previously described with slight modifications, [45]. Fresh human venal blood was collected from healthy volunteers and pretreated with the anticoagulant sodium citrate. Serial twofold dilutions of each antibiotic, dissolved in 0.9% NaCl solution, were added to fresh human whole blood (50% final, vol:vol) to the final volume of 80 μL and incubated at 37 °C for 3 h on a horizontal shaker at 200 rpm. For negative and positive controls, human whole blood in 0.9% NaCl solution (A blank) and in sdH2O (A water) were used, respectively. After incubation, both test and A blank were mixed with 1 mL 0.9% NaCl solution, or sdH2O for the complete […] A water. After centrifugation of samples at 2500 rpm (700 × g) for 5 min, the release of haemoglobin was monitored by measuring the absorbance (A sample) of the supernatant at 540 nm using BMG Labtech PolarStar Omega multimode reader. The percentage of haemolysis was calculated according to the equation: %haemolysis=Asample-Ablank∕Awater-Ablank×100

Compound | MIC +50% HS (MRSA) | remaining at 1 h, 20 µM (in vitro) [%] | remaining at 6 h, 20 µM (in vitro) [%] | remaining at 24 h, 20 µM (in vitro) [%] | CC50 at 24 h (Cytotoxicity MTT assay [1]) [µM] | % compound remaining after incubation in 50% human plasma, 0h [8] [%] | Ac2Kaa concentration required to neutralise MIC activity [9] [µg/mL] | MIC [9] [µg/mL] | Molar excess of Ac2Kaa ligand required to antagonise antibacterial activity [9] | MIC MRSA ([2]; ATCC 43300, 24 h) [µg/mL] | MIC VRE ([3]; ATCC 51559) [µg/mL] | MIC MDR S.P. ([4]; ATCC 700677) [µg/mL] | MIC VISA ([5]; Vancomycin-intermediate NRS1) [µg/mL] | CC50 at 24 h (Cytotoxicity MTT assay [6]) [µM] | other results
CCCCCCCCCCCCCC(=O)NCC(=O)N[C@@H](CO)C(=O)N[C@@H](CO)C(=O)N[C@@H](CCCCN)C(=O)N[C@@H](CO)C(=O)N1CCC[C@H]1C(=O)N[C@@H](CO)C(=O)N[C@@H](CCCCN)C(=O)N[C@@H](CCCCN)C(=O)N[C@@H](CCCCN)C(=O)N[C@@H](CCCCN)C(=O)N[C@@H](CCCCN)C(=O)N[C@@H](CCCCN)C(=O)N1CCC[C@H]1C(=O)NCC(=O)N[C@@H](CC(=O)O)C(=O)N[C@@H](CSSCCNC(=O)[C@H]1NC(=O)[C@H]2NC(=O)[C@H](NC(=O)[C@@H]3NC(=O)[C@H](CC(N)=O)NC(=O)[C@H](NC(=O)[C@@H](CC(C)C)NC)[C@H](O)c4ccc(c(Cl)c4)Oc4cc3cc(c4O[C@@H]3O[C@H](CO)[C@@H](O)[C@H](O)[C@H]3O[C@H]3C[C@](C)(N)[C@H](O)[C@H](C)O3)Oc3ccc(cc3Cl)[C@H]2O)c2ccc(O)c(c2)-c2c(O)cc(O)cc21)C(N)=O [Compound 8] | >8 µg/mL | – | – | – | – | – | – | – | – | – | – | – | – | – | CC50 at 24 h (Cytotoxicity MTT assay [1]; 24 h, MTT, 1% FBS, read-out: Cytotoxicity CC50 HEK293): 22 µM; MIC MRSA ([2]; S. aureus ATCC 43300, NBS plates, MHB, 24 h, substance alone): 0.5 µg/mL (≈ 0.143 µM); MIC VRE ([3]; E. faecium MDR VanA ATCC 51559, substance alone): 0.125 µg/mL (≈ 0.0357 µM); MIC MDR S.P. ([4]; S. pneumoniae ATCC 700677): 0.5 µg/mL (≈ 0.143 µM); MIC VISA ([5]; S. aureus NRS1): 4 µg/mL (≈ 1.14 µM); CC50 at 24 h (Cytotoxicity MTT assay [6]; 24 h, MTT, 1% FBS, read-out: Cytotoxicity CC50 HepG2): 10 µM
CN[C@H](CC(C)C)C(=O)N[C@H]1C(=O)N[C@@H](CC(N)=O)C(=O)N[C@H]2C(=O)N[C@H]3C(=O)N[C@H](C(=O)N[C@H](C(=O)NCCCC[C@H](NC(=O)[C@H](CCCCN)NC(=O)[C@H](CCCCN)NC(=O)[C@H](CCCCNC(=O)c4ccc(Oc5ccccc5)cc4)NC(=O)c4ccc(Oc5ccccc5)cc4)C(=O)O)c4cc(O)cc(O)c4-c4cc3ccc4O)[C@H](O)c3ccc(c(Cl)c3)Oc3cc2cc(c3O[C@@H]2O[C@H](CO)[C@@H](O)[C@H](O)[C@H]2O[C@H]2C[C@](C)(N)[C@H](O)[C@H](C)O2)Oc2ccc(cc2Cl)[C@H]1O [Compound 23, POP2K-KK-K(Vancomycin)-OH] | – | 107 | 103 | 99 | 47 | 100 | 200 | ≤ 0.004 | 15,102 | <0.003 | 4 (≈ 1.7 µM) | <0.003 | 0.5 (≈ 0.212 µM) | 41 | critical micelle concentration (CMC) [7]: exceed 100 µM
POB2K-K-Dap-K(Vancomycin)-NHMe [Compound 27] | 0.25 µg/mL and 0.375 µg/mL | – | – | – | – | – | – | – | – | – | – | – | – | – | –
CCCCCCCCCCCCCC(=O)NCC(=O)N[C@@H](CO)C(=O)N[C@@H](CCCCN)C(=O)N[C@@H](CCCCN)C(=O)N[C@@H](CCCCN)C(=O)N[C@@H](CSSCCNC(=O)[C@H]1NC(=O)[C@H]2NC(=O)[C@H](NC(=O)[C@@H]3NC(=O)[C@H](CC(N)=O)NC(=O)[C@H](NC(=O)[C@@H](CC(C)C)NC)[C@H](O)c4ccc(c(Cl)c4)Oc4cc3cc(c4O[C@@H]3O[C@H](CO)[C@@H](O)[C@H](O)[C@H]3O[C@H]3C[C@](C)(N)[C@H](O)[C@H](C)O3)Oc3ccc(cc3Cl)[C@H]2O)c2ccc(O)c(c2)-c2c(O)cc(O)cc21)C(=O)O [Compound 14] | – | 119 | 82 | 18 | 11 | 100 | > 3200 | ≤ 0.004 | – | <0.003 | 0.09 (≈ 0.038 µM) | <0.003 | <0.003 | 4 | hemolysis at 3 h (Haemolysis assay; 100 µg mL-1): 0.4%; hemolysis at 3 h (Haemolysis assay; 1600 µg mL-1): 6.4%
CCCCCCCCCCC(=O)N[C@@H](CCCCNC(=O)[C@H]1NC(=O)[C@H]2NC(=O)[C@H](NC(=O)[C@@H]3NC(=O)[C@H](CC(N)=O)NC(=O)[C@H](NC(=O)[C@@H](CC(C)C)NC)[C@H](O)c4ccc(c(Cl)c4)Oc4cc3cc(c4O[C@@H]3O[C@H](CO)[C@@H](O)[C@H](O)[C@H]3O[C@H]3C[C@](C)(N)[C@H](O)[C@H](C)O3)Oc3ccc(cc3Cl)[C@H]2O)c2ccc(O)c(c2)-c2c(O)cc(O)cc21)C(=O)O [Compound 20, nC10CO-K(Vancomycin)-OH] | – | 101 | 100 | 89 | > 500 | 100 | 12.5 | 0.03 (≈ 0.0172 µM) | 663 | 0.125 (≈ 0.0716 µM) | >8 | 0.19 (≈ 0.109 µM) | 1.5 (≈ 0.859 µM) | > 500 | remaining at 3 h, 20 µM (in vitro): 101%
